The text below walks through data of ChEMBL document CHEMBL4414604, “Anti-inflammatory Chalcone-Isoflavone Dimers and Chalcone Dimers from Caragana jubata” (J Nat Prod, 2019).

For data set [1], the system named is RAW264.7. Put plainly: Cytotoxicity against mouse RAW264.7 cells assessed as reduction in cell viability at 50 uM by MTT assay. The class given is cell-based. Particulars: raw264.7, 50 µM.
For data set [2], the system named is RAW264.7. The data set is described as follows: Antiinflammatory activity against mouse RAW264.7 cells assessed as inhibition of LPS-induced NO production incubated for 24 hrs by Griess reagent-based assay. The settings on record: RAW264.7, 24 h. In kind it is functional, cell-based.
Data set [3] deals with RAW264.7. The data set is described as follows: Antiinflammatory activity against mouse RAW264.7 cells assessed as inhibition of LPS-induced IL-6 secretion after 24 hrs by ELISA. In kind it is functional, cell-based. Particulars: RAW264.7, 24 h.
In data set [4] the test system is RAW264.7. The data set is described as follows: Antiinflammatory activity against mouse RAW264.7 cells assessed as inhibition of LPS-induced TNF-alpha secretion after 24 hrs by ELISA. The class given is functional, cell-based. The settings on record: RAW264.7, 24 h.

Structures are written as SMILES. Bounds are passed on as bounds.

As for `COc1ccc2c(c1)O[C@@H](c1ccc(OC)cc1OC)[C@H](Cc1ccc(O)cc1)[C@H]2/C=C/c1ccc(O)cc1`, the Activity result in the data set on RAW264.7 [1] is “Non-Toxic”. Moreover, the IC50 turned out to be 25.6 µM in the data set on RAW264.7 [2], 31.4 µM in the data set on RAW264.7 [3] and 26.7 µM in the data set on RAW264.7 [4].
Turning to `COc1ccc([C@H](/C=C/c2ccc(O)cc2)c2cc(-c3coc4cc(OC)cc(O)c4c3=O)c(O)cc2O)c(OC)c1`, the Activity result in the data set with RAW264.7 [1] is “Non-Toxic”. Also, the IC50 in the data set on RAW264.7 [2] was 25.7 µM; in the data set on RAW264.7 [3] it was over 50 µM; in the data set with RAW264.7 [4] it was 11.4 µM.
For `COc1ccc2c(c1)O[C@@]1(/C=C/c3ccc(O)cc3)c3ccc(OC)cc3O[C@H]2[C@H]1Cc1ccc(O)cc1`, the Activity result with RAW264.7 [1] was “Non-Toxic”. The values for the IC50 in the data set on RAW264.7 [2], with RAW264.7 [3] and in the data set with RAW264.7 [4] were 5.2 µM, 26.8 µM and 14.7 µM, respectively.
Turning to `COc1ccc(/C=C/[C@H](c2ccc(O)cc2)c2cc(-c3coc4cc(OC)cc(O)c4c3=O)c(O)cc2O)c(OC)c1`, the Activity entry in the data set with RAW264.7 [1] is reported as “Non-Toxic”. In addition, the results for the IC50 in the data set with RAW264.7 [2], in the data set on RAW264.7 [3] and with RAW264.7 [4] were 4.1 µM, 32.6 µM and 20.5 µM, respectively.
Consider `C[C@@H]1C[C@H]2[C@@H]3CCC4=CC(=O)C=C[C@]4(C)[C@@]3(F)[C@@H](O)C[C@]2(C)[C@@]1(O)C(=O)CO` [DEXAMETHASONE], for which the IC50 came to 6 µM in the data set on RAW264.7 [2], 8.4 µM in the data set with RAW264.7 [3] and 6.1 µM with RAW264.7 [4].
`C[C@H]1[C@H](C)CC[C@]2(C=O)CC[C@]3(C)C(=CC[C@@H]4[C@@]5(C)CC[C@H](O)C(C)(C)[C@@H]5CC[C@]43C)[C@H]12` [OLEANOALDEHYDE]: the Activity entry in the data set with RAW264.7 [1] was “Non-Toxic”. Further, the IC50 with RAW264.7 [2] amounted to 18.6 µM.
